Experimental findings from patent publication US10875876B2, “Cyclized sulfamoylarylamide derivatives and the use thereof as medicaments for the treatment of hepatitis B” (priority 2015, dated 2020) are described below.

For one series, the system named is HBV. Nature of the series: anti HBV activity, HepG2.117 cell line, intracellular HBV DNA by realtime PCR. In kind it is cell-based. To be noted: HepG2.117 cell line (Tet-off), 3 days of treatment, intracellular HBV DNA quantified by realtime PCR; read-out: HBV-AVE-HepG2.117 EC50. Put shortly: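 HepG2.117 cells, a Tet-off line that replicates HBV without doxycycline, were induced and then treated in duplicate with serially diluted compound. After 3 days, intracellular HBV DNA was quantified by real-time PCR with an HBV-specific primer set and probe.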

Series [1] relates to HepG2 cells.
The conditions of series [2]: from C=CCCCCC(C)NS(=O)(=O)c1cn(C)c(C(=O)OC)c1CC=C; rcm bond; Grubbs catalyst 2nd generation; DCE; 3.4 mM; 80.0 °C; 2.0 h.
The test system of series [3] is HepG2 cells. Nature of the series: Cytotoxicity in HepG2 cells, Resazurin assay. The settings on record: read-out: TOX-HepG2-4 d CC50; HepG2 cells incubated for 4 days, viability by Resazurin assay. A general note: The colour change of resazurin is a common sign of viable cells or microbes.

The structures appear in SMILES notation. Where two headings read alike, the source gives them in different places. A value given as a limit tells only on which side of the number the result lay.

As to `C[C@@H](N1CCCCc2c(cn(C)c2C(=O)Nc2ccc(F)c(F)c2)S1(=O)=O)C(F)(F)F` [Compound 4, N-(3,4-difluorophenyl)-8-methyl-1,1-dioxo-2-[(1R)-2,2,2-trifluoro-1-methyl-ethyl]-3,4,5,6-tetrahydropyrrolo[3,4-g]thiazocine-7-carboxamide], the 50% effective concentration (EC50) in the series on HBV worked out at 1090 nM. The CC50 in the series on HepG2 cells [1] is above 25000 nM.

`COC(=O)c1c2c(cn1C)S(=O)(=O)NC(C)CCCC/C=C\C2` (centres unmarked): the ring closure, yield of all isomers in series [2] amounted to 61.1%.

On to `Cn1cc2c(c1C(=O)Nc1ccc(F)c(F)c1)OC[C@H](C(O)C1CC1)NS2(=O)=O` (stereo partly drawn) [Compound 105b, (3R)-3-[cyclopropyl(hydroxy)methyl]-N-(3,4-difluorophenyl)-7-methyl-1,1-dioxo-3,4-dihydro-2H-pyrrolo[3,4-b][1,4,5]oxathiazepine-6-carboxamide], for which the EC50 with HBV is 11 nM. Moreover, the CC50 with HepG2 cells [3] is above 25000 nM.

Regarding `Cc1cc(CC2(C)COc3c(cn(C)c3C(=O)Nc3ccc(F)c(F)c3)S(=O)(=O)N2)n(C)n1` (single isomer, unassigned) [Compound 175b, N-(3,4-difluorophenyl)-3-[(2,5-dimethylpyrazol-3-yl)methyl]-3,7-dimethyl-1,1-dioxo-2,4-dihydropyrrolo[3,4-b][1,4,5]oxathiazepine-6-carboxamide], in the series on HBV, the EC50 came out at 3 nM. Also, in the series with HepG2 cells [3], the CC50 was above 25000 nM.

Take `CC(C)C(O)C1COc2c(cn(C)c2C(=O)Nc2ccc(F)c(C#N)c2)S(=O)(=O)N1` (centres unmarked) [Compound 119b, N-(3-cyano-4-fluoro-phenyl)-3-(1-hydroxy-2-methyl-propyl)-7-methyl-1,1-dioxo-3,4-dihydro-2H-pyrrolo[3,4-b][1,4,5]oxathiazepine-6-carboxamide]: the concentration giving a half-maximal response (EC50) with HBV worked out at 6 nM. Further, the CC50 in the series on HepG2 cells [3] is above 25000 nM.

Regarding `CCC(O)[C@H]1COc2c(cn(C)c2C(=O)Nc2ccc(F)c(F)c2)S(=O)(=O)N1` (stereo partly drawn) [Compound 130b, (3R)—N-(3,4-difluorophenyl)-3-(1-hydroxypropyl)-7-methyl-1,1-dioxo-3,4-dihydro-2H-pyrrolo[3,4-b][1,4,5]oxathiazepine-6-carboxamide], the EC50 in the series with HBV stood at 12 nM. The CC50 in the series on HepG2 cells [3] is above 25000 nM.

For the compound `Cn1cc2c(c1C(=O)Nc1ccc(F)c(F)c1)O[C@@H](C(F)(F)F)[C@H](CO)NS2(=O)=O` [compound 244], the EC50 in the series with HBV was above 500 nM. For the same compound, the CC50 in the series on HepG2 cells [3] was above 25000 nM.

With `Cn1cc2c(c1C(=O)Nc1ccnc(Cl)c1)OCC(C)(CO)NS2(=O)=O` (single isomer, unassigned) [Compound 204b, N-(2-chloro-4-pyridyl)-3-(hydroxymethyl)-3,7-dimethyl-1,1-dioxo-2,4-dihydropyrrolo[3,4-b][1,4,5]oxathiazepine-6-carboxamide], the EC50 with HBV is above 125 nM. Further, in the series with HepG2 cells [3], the CC50 is above 25000 nM.

With `Cc1cc(CC2(C)COc3c(cn(C)c3C(=O)Nc3ccc(F)c(C#N)c3)S(=O)(=O)N2)no1` (single isomer, unassigned) [Compound 220b, N-(3-cyano-4-fluoro-phenyl)-3,7-dimethyl-3-[(5-methylisoxazol-3-yl)methyl]-1,1-dioxo-2,4-dihydropyrrolo[3,4-b][1,4,5]oxathiazepine-6-carboxamide], the half-maximal effective concentration (EC50) with HBV worked out at 34 nM. In the series with HepG2 cells [3], the CC50 is above 25000 nM.

In the case of `C[C@@H]1Oc2c(cn(C)c2C(=O)Nc2ccc(F)c(C#N)c2)S(=O)(=O)N[C@@H]1CO` [compound 235], the EC50 with HBV was above 500 nM. For the same compound, the CC50 with HepG2 cells [3] is above 25000 nM.

For `Cc1cc(CC2(C)COc3c(cn(C)c3C(=O)Nc3ccnc(C(F)F)c3)S(=O)(=O)N2)no1` (single isomer, unassigned) [Compound 209b, N-[2-(difluoromethyl)-4-pyridyl]-3,7-dimethyl-3-[(5-methylisoxazol-3-yl)methyl]-1,1-dioxo-2,4-dihydropyrrolo[3,4-b][1,4,5]oxathiazepine-6-carboxamide], in the series on HBV, the EC50 was determined as 18 nM. In addition, in the series with HepG2 cells [3], the CC50 is above 25000 nM.

As for `CC(NCC(F)(F)F)C1COc2c(cn(C)c2C(=O)Nc2ccc(F)c(C#N)c2)S(=O)(=O)N1` (single isomer, unassigned) [Compound 161c, N-(3-cyano-4-fluoro-phenyl)-7-methyl-1,1-dioxo-3-[1-(2,2,2-trifluoroethylamino)ethyl]-3,4-dihydro-2H-pyrrolo[3,4-b][1,4,5]oxathiazepine-6-carboxamide], in the series with HBV, the concentration for a half-maximal effect (EC50) came out at 11 nM. For the same compound, the CC50 in the series on HepG2 cells [3] is above 25000 nM.

Consider `CC1COc2c(cn(C)c2C(=O)Nc2ccc(F)c(F)c2)S(=O)(=O)N1` (single isomer, unassigned) [Compound 14b, N-(3,4-difluorophenyl)-3,7-dimethyl-1,1-dioxo-3,4-dihydro-2H-pyrrolo-[3,4-b][1,4,5]oxathiazepine-6-carboxamide], for which, in the series with HBV, the EC50 came to 78 nM. Further, in the series with HepG2 cells [3], the CC50 was above 25000 nM.

In the case of `Cn1cc2c(c1C(=O)Nc1ccc(F)c(F)c1)OC[C@@H](C(O)C1CC1)NS2(=O)=O` (single isomer, unassigned) [Compound 92b], the EC50 with HBV worked out at 170 nM. Further, in the series on HepG2 cells [3], the CC50 is above 25000 nM.

In the case of `Cn1cc2c(c1C(=O)Nc1ccc(F)c(F)c1)OCC(C)(c1ncccn1)NS2(=O)=O` (single isomer, unassigned) [Compound 153b, N-(3,4-difluorophenyl)-3,7-dimethyl-1,1-dioxo-3-pyrimidin-2-yl-2,4-dihydropyrrolo[3,4-b][1,4,5]oxathiazepine-6-carboxamide], in the series on HBV, the EC50 worked out at 60 nM. Also, in the series with HepG2 cells [3], the CC50 is above 25000 nM.

The EC50 is the concentration that produces a half-maximal response. For orientation: CC50 means the concentration at which the toxic effect on the cells reaches its halfway point.
